In brackets after ≈: the same amount, converted by molar mass. Activity calls are given as the source filed them. The calls are words filed in the database; no cut-off is given here.
What was measured:
Mus musculus [1] = experiment: Anticonvulsant activity in Swiss Albino mouse assessed as duration of seizure at 2 mg/kg, po by PTZ induced seizure test; format: functional
Mus musculus [2] = experiment: Anticonvulsant activity in Swiss Albino mouse assessed as duration of seizure at 50 mg/kg, po by PTZ induced seizure test; format: functional
Mus musculus [3] = experiment: Anticonvulsant activity in Swiss Albino mouse assessed as mortality at 50 mg/kg, po by PTZ induced seizure test; format: functional, organism-based; set-up: dose 50 mg/kg
Staphylococcus aureus = experiment: Antibacterial activity against Staphylococcus aureus ATCC 25923 by disc diffusion method; format: functional
Rattus norvegicus = experiment: Antiinflammatory activity in Wister Albino rat assessed as inhibition of paw edema at 50 mg/kg, po after 3hrs; format: functional
Talaromyces marneffei = experiment: Antifungal activity against Penicillium marneffei by serial plate dilution method; format: functional; conditions: for MIC: Talaromyces marneffei
Pseudomonas aeruginosa = experiment: Antibacterial activity against Pseudomonas aeruginosa ATCC 27853 by disc diffusion method; format: functional; conditions: for MIC: Pseudomonas aeruginosa, ATCC 27853
Klebsiella pneumoniae = experiment: Antibacterial activity against Klebsiella pneumoniae by disc diffusion method; format: functional; conditions: for MIC: Klebsiella pneumoniae
Aspergillus fumigatus = experiment: Antifungal activity against Aspergillus fumigatus NCIM 902 by serial plate dilution method; format: functional; conditions: for MIC: Aspergillus fumigatus, NCIM 902
Escherichia coli = experiment: Antibacterial activity against Escherichia coli ATCC 25922 by disc diffusion method; format: functional; conditions: for MIC: Escherichia coli, ATCC 25922
Aspergillus flavus = experiment: Antifungal activity against Aspergillus flavus NCIM 524 by serial plate dilution method; format: functional; conditions: for MIC: Aspergillus flavus, NCIM 524
Trichophyton benhamiae = experiment: Antifungal activity against Trichophyton mentagrophytes by serial plate dilution method; format: functional, Arthroderma benhamiae; conditions: for MIC: Trichophyton benhamiae
[4] = Staphylococcus aureus, ATCC 25923, read-out: MIC

Row | Structure (SMILES) | MIC (Staphylococcus aureus; [4]) | MIC (Talaromyces marneffei) | MIC (Pseudomonas aeruginosa) | MIC (Klebsiella pneumoniae) | MIC (Aspergillus fumigatus) | MIC (Escherichia coli) | MIC (Aspergillus flavus) | MIC (Trichophyton benhamiae) | Activity (Mus musculus [1]) | Activity (Mus musculus [2]) | Activity (Mus musculus [3]) | inhibition zone (IZ) (Staphylococcus aureus) | inhibition in vivo at 50 mg/kg (Rattus norvegicus) | inhibition zone (IZ) (Talaromyces marneffei) | inhibition zone (IZ) (Pseudomonas aeruginosa) | inhibition zone (IZ) (Klebsiella pneumoniae) | inhibition zone (IZ) (Aspergillus fumigatus) | inhibition zone (IZ) (Escherichia coli) | inhibition zone (IZ) (Aspergillus flavus) | inhibition zone (IZ) (Trichophyton benhamiae) | further results
1 | O=c1c2c3c(sc2nc2sc(CCl)nn12)CCCC3 |  |  |  |  |  |  |  |  | 70 s | 450 s | inactive |  |  |  |  |  |  |  |  |  | 
2 | Nn1c(SCC(=O)c2cc3ccccc3oc2=O)nc2sc3c(c2c1=O)CCCC3 | 6.25 µg/mL (≈ 14.2 µM) | > 100 µg/mL | > 100 µg/mL | < 6.25 µg/mL | > 100 µg/mL | 12.5 µg/mL (≈ 28.4 µM) | 80 µg/mL (≈ 182 µM) | > 100 µg/mL | 56 s | 30 s | inactive | 22 mm | 6.67% | 6 mm | 8 mm | 22 mm | 8 mm | 18 mm | 12 mm | 8 mm | 
3 | CN[C@@H]1[C@H](O[C@H]2[C@H](O[C@H]3[C@H](O)[C@@H](O)[C@H](N=C(N)N)[C@@H](O)[C@@H]3N=C(N)N)O[C@@H](C)[C@]2(O)C=O)O[C@@H](CO)[C@H](O)[C@H]1O (stereo in doubt) [STREPTOMYCIN] |  |  | < 6.25 µg/mL | < 6.25 µg/mL |  | < 6.25 µg/mL |  |  |  |  |  | 21 mm |  |  | 24 mm | 24 mm |  | 20 mm |  |  | MIC (Staphylococcus aureus): <6.25 ug/sq.cm
4 | O=c1c2c3c(sc2nc2sc(-c4cc(Cl)cc(Cl)c4)nn12)CCCC3 | > 100 µg/mL | > 100 µg/mL | > 100 µg/mL | > 100 µg/mL | > 100 µg/mL | > 100 µg/mL | > 100 µg/mL | > 100 µg/mL |  |  |  | 8 mm |  | 5 mm | 8 mm | 6 mm | 5 mm | 8 mm | 6 mm | 6 mm | 

Now from value to compound, other results behind:

Row | MIC (Staphylococcus aureus; [4]) | MIC (Talaromyces marneffei) | MIC (Pseudomonas aeruginosa) | MIC (Klebsiella pneumoniae) | MIC (Aspergillus fumigatus) | MIC (Escherichia coli) | MIC (Aspergillus flavus) | MIC (Trichophyton benhamiae) | Structure (SMILES) | Activity (Mus musculus [1]) | Activity (Mus musculus [2]) | Activity (Mus musculus [3]) | inhibition zone (IZ) (Staphylococcus aureus) | inhibition in vivo at 50 mg/kg (Rattus norvegicus) | inhibition zone (IZ) (Talaromyces marneffei) | inhibition zone (IZ) (Pseudomonas aeruginosa) | inhibition zone (IZ) (Klebsiella pneumoniae) | inhibition zone (IZ) (Aspergillus fumigatus) | inhibition zone (IZ) (Escherichia coli) | inhibition zone (IZ) (Aspergillus flavus) | inhibition zone (IZ) (Trichophyton benhamiae) | further results
5 | > 100 µg/mL | > 100 µg/mL | 80 µg/mL (≈ 226 µM) | > 100 µg/mL | > 100 µg/mL | 80 µg/mL (≈ 226 µM) | 80 µg/mL (≈ 226 µM) | > 100 µg/mL | O=c1c2c3c(sc2nc2sc(Cc4ccccc4)nn12)CCCC3 |  |  |  | 8 mm |  | 6 mm | 10 mm | 8 mm | 6 mm | 10 mm | 10 mm | 6 mm | 
6 | 10 µg/mL (≈ 28.3 µM) | 12.5 µg/mL (≈ 35.4 µM) | 10 µg/mL (≈ 28.3 µM) | 80 µg/mL (≈ 226 µM) | 12.5 µg/mL (≈ 35.4 µM) | > 100 µg/mL | > 100 µg/mL | > 100 µg/mL | Cc1cccc(-c2nn3c(=O)c4c5c(sc4nc3s2)CCCC5)c1 | 51 s | 220 s | inactive | 20 mm | 51.1% | 18 mm | 20 mm | 10 mm | 18 mm | 8 mm | 6 mm | 4 mm | 
7 | 10 µg/mL (≈ 32.7 µM) | 12.5 µg/mL (≈ 40.9 µM) | 10 µg/mL (≈ 32.7 µM) | 6.25 µg/mL (≈ 20.5 µM) | < 6.25 µg/mL | 10 µg/mL (≈ 32.7 µM) | < 6.25 µg/mL | > 100 µg/mL | CCCc1nn2c(=O)c3c4c(sc3nc2s1)CCCC4 | 73 s | 75 s | inactive | 20 mm | 30.8% | 19 mm | 22 mm | 26 mm | 26 mm | 18 mm | 28 mm | 6 mm | 
8 | 60 µg/mL (≈ 177 µM) | 12.5 µg/mL (≈ 36.8 µM) | 60 µg/mL (≈ 177 µM) | 60 µg/mL (≈ 177 µM) | 12.5 µg/mL (≈ 36.8 µM) | 100 µg/mL (≈ 295 µM) | > 100 µg/mL | > 100 µg/mL | O=c1c2c3c(sc2nc2sc(-c4ccccc4)nn12)CCCC3 | 58 s | 65 s | inactive | 18 mm | 24.4% | 16 mm | 18 mm | 16 mm | 18 mm | 9 mm | 7 mm | 7 mm | 

From ChEMBL document CHEMBL1146350, “Synthesis of some new bioactive 3-amino-2-mercapto-5,6,7,8-tetrahydro[1]benzothieno[2,3-d]pyrimidin-4(3H)-one derivatives” (2007)
